The source of these data is patent US20260200913A1, “ATROPISOMERS OF MAT2A INHIBITORS” (IDEAYA Biosciences, Inc., priority 2022, published 2026).

One experiment has as its target T1, Human MAT2A (Homo sapiens, UniProt P31153).
T1 construct: Human MAT2A: Cepter, amino acids 1-395 Clone ID 334; purchased Cepter Clone ID 334, lot 00023-148
Kind of experiment: Phosphate Sensor Fluorescence Assay (MAT2A enzyme inhibition). The format is biochemical. The note with it: 5.8 nM MAT2A (1-395), 500 uM L-methionine, 500 uM ATP, 1 hour at room temperature, fluorescence at 450 nm. As to the method:
MAT2A enzyme is incubated with a test compound in DMSO or DMSO and its substrates (L-methionine and ATP) in a microtiter plate. The enzymatic reaction is stopped by the addition of Working Phosphate Sensor Mixture. The plate is analyzed for fluorescence at 450 nm. The high control (DMSO with enzyme and its substrates) gives high fluorescence which represents no inhibition of enzymatic activity while the low control (DMSO with MAT2A substrates and no enzyme) gives low fluorescence which represents full inhibition of enzymatic activity. […]
For the assay, a mixture of 1 mM L-methionine/1 mM ATP (2× final pre-stopped concentration) in assay buffer: MAT2A (2× final pre-stopped concentration) in Assay Buffer and Working Phosphate Sensor Mixture (1.5 uM Phosphate Sensor/30 mM EDTA in Assay Buffer, which is 3× final concentrations) were prepared. […] The plate was read for fluorescence at 450 nm after exciting at 430 nm on a Tecan Spark microplate reader.
Percent inhibition was calculated in Chemical and Biological Information System (CBIS), (ChemInnovation Software Inc.). […]

The next experiment concerns HCT116 MTAP null cells. Kind of experiment: HCT116 MTAP-Null Cell Line Viability. The class given is cell-based. As to conditions: final count 4-5 days post treatment (IncuCyte, GFP), normalized to DMSO wells. The method, then: Preparation: HCT116 WT and MTAP null cells were cultured in DMEM/F12+10% FBS at 37° C. Left the media, dissociation reagent, and PBS in room temperature at least 1 hr prior to start.
Process: Washed cells with 5 mL of PBS, aspirate the PBS. Added 1 mL of dissociation reagent (Trypsin, Gibco #25200114) and left at room temperature for 2-5 mins. When cells were detached, added 5 ml of fresh media. Cells were collected into a 10 mL tube and centrifuged at 1000 rpm for 5 minutes at room temperature. Aspirated media, resuspended in 5 mL fresh media, and counted on Bio-Rad TC20 Cell Counter. Based on the count and the table below, added cells to a clear flat bottom, TC-treated 384-well plate (Corning #3764).
Treated the cells the next day post splitting. Used a 10 mM stock of compound.
Process: Compound treatment was applied to cells using a Tecan D300e digital dispenser with a high concentration 20 micromolar and 3-fold serial dilutions over 9 concentrations in triplicate on a 384-well plate.
4-5 days post treatment, used a Live-Cell Analysis System (IncuCyte®) suitable for reading GFP to do a final count. Raw data were normalized based on the average value of the DMSO wells on each plate.

T1 sequence (P31153 whole entry, the tested form may be a part): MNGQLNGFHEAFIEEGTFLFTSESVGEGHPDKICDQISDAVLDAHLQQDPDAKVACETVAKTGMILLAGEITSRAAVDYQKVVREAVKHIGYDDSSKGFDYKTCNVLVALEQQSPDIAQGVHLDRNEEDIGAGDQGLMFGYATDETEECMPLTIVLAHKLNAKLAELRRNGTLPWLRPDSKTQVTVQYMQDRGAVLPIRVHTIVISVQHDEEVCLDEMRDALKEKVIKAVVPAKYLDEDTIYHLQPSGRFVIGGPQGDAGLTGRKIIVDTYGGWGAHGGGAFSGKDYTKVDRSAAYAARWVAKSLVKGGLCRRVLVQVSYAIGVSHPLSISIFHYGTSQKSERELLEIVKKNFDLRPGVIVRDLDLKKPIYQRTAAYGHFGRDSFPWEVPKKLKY

With `Nc1nc(=O)n(-c2ccccc2Cl)c2nc(C(F)(F)F)ccc12` (atropisomer, axis not shown) [Atropisomer Ib], the IC50 (commonly the concentration that gives 50% inhibition) against Human MAT2A worked out at 60 nM. Besides, the EC50 (commonly the concentration giving half of the maximal effect) with HCT116 MTAP null cells was 149 nM.

`Nc1nc(=O)n(-c2ccccc2Cl)c2nc(C(F)(F)F)ccc12` (single isomer, unassigned) [Atropisomer Ia] yielded an IC50 against Human MAT2A of 3 nM. In the experiment on HCT116 MTAP null cells, this compound showed an EC50 of 20 nM.
